Reference: publication PMC8155022 (Scientific Reports, 2021)

Columns and labels:
NEK2(h) = target: T1, NEK2(h) (Homo sapiens, UniProt P51955); assay: Kinase panel; format: biochemical
T1 construct: purchased Cerep (receptors, ion channels, transporters); Eurofins Panlabs (kinases)
Protocol: (§1) Kinase selectivity was conducted by Eurofins Panlabs Inc (St Charles, MO).

KOP = KOP (Homo sapiens, UniProt P41145); assay: GPCR panel, cAMP or calcium FLIPR assays; format: cell-based
Protocol: (§2) 28 GPCRs were evaluated through cAMP or calcium FLIPR assays[67].

CK2α2(h) = target: T2, CK2α2(h) (Homo sapiens, UniProt P19784); assay: Kinase panel; format: biochemical
T2 construct: purchased Cerep (receptors, ion channels, transporters); Eurofins Panlabs (kinases)
Protocol: as §1

D2L = D2L (Homo sapiens, UniProt P14416); assay: GPCR panel, cAMP or calcium FLIPR assays; format: cell-based
Protocol: as §2

5HT2B = 5HT2B (Homo sapiens, UniProt P41595); assay: GPCR panel, cAMP or calcium FLIPR assays; format: cell-based
Protocol: as §2

5-HT6 (h) = target: T3, 5-HT6 (h) (Homo sapiens, UniProt P50406); assay: Cerep panel; format: binding
T3 construct: purchased Cerep (receptors, ion channels, transporters); Eurofins Panlabs (kinases)
Protocol: (§3) A panel of 52 different receptors, ion channels and transporters was tested by Cerep, Inc. (Redmond, WA).

ADRB2 = ADRB2 (Homo sapiens, UniProt P07550); assay: GPCR panel, cAMP or calcium FLIPR assays; format: cell-based
Protocol: as §2

5-HT3 (h) = target: T4, 5-HT3 (h) (Homo sapiens, UniProt P46098); assay: Cerep panel; format: binding
T4 construct: purchased Cerep (receptors, ion channels, transporters); Eurofins Panlabs (kinases)
Protocol: as §3

MT1 (h) = target: T5, MT1 (h) (Homo sapiens, UniProt P48039); assay: Cerep panel; format: binding
T5 construct: purchased Cerep (receptors, ion channels, transporters); Eurofins Panlabs (kinases)
Protocol: as §3

PPARγ = target: T6, PPARγ (Homo sapiens, UniProt P37231); assay: nuclear receptor cellular GAL4 reporter assay; format: cell-based; conditions: agonist and antagonist mode; read-out: potency in agonist and antagonist mode
T6 construct: expressed in transfected cells

DA-T transporter (h) = target: T7, DA-T transporter (h) (Homo sapiens, UniProt Q01959); assay: Cerep panel; format: binding
T7 construct: purchased Cerep (receptors, ion channels, transporters); Eurofins Panlabs (kinases)
Protocol: (§4) 28 GPCRs were evaluated through cAMP or calcium FLIPR assays[67]. A panel of 52 different receptors, ion channels and transporters was tested by Cerep, Inc. (Redmond, WA).

M3 (h) = target: T8, M3 (h) (Homo sapiens, UniProt P20309); assay: Cerep panel; format: binding
T8 construct: purchased Cerep (receptors, ion channels, transporters); Eurofins Panlabs (kinases)
Protocol: as §3

ADRA2A = ADRA2A (Homo sapiens, UniProt P08913); assay: GPCR panel, cAMP or calcium FLIPR assays; format: cell-based
Protocol: as §2

5-HT1B = target: T9, 5-HT1B (Rattus norvegicus, UniProt P28564); assay: Cerep panel; format: binding
T9 construct: purchased Cerep (receptors, ion channels, transporters); Eurofins Panlabs (kinases)
Protocol: as §3

PAK4(h) = target: T10, PAK4(h) (Homo sapiens, UniProt O96013); assay: Kinase panel; format: biochemical
T10 construct: purchased Cerep (receptors, ion channels, transporters); Eurofins Panlabs (kinases)
Protocol: as §1

kappa (KOP) = target: T11, kappa (KOP) (Rattus norvegicus, UniProt P34975); assay: Cerep panel; format: binding
T11 construct: purchased Cerep (receptors, ion channels, transporters); Eurofins Panlabs (kinases)
Protocol: as §3

plasma protein binding = format: in vitro ADME; conditions: human
CCR1 (h) = target: T12, CCR1 (h) (Homo sapiens, UniProt P32246); assay: Cerep panel; format: binding
T12 construct: purchased Cerep (receptors, ion channels, transporters); Eurofins Panlabs (kinases)
Protocol: as §3

5-HT5A (h) = target: T13, 5-HT5A (h) (Homo sapiens, UniProt P47898); assay: Cerep panel; format: binding
T13 construct: purchased Cerep (receptors, ion channels, transporters); Eurofins Panlabs (kinases)
Protocol: as §3

ETA (h) = target: T14, ETA (h) (Homo sapiens, UniProt P25101); assay: Cerep panel; format: binding
T14 construct: purchased Cerep (receptors, ion channels, transporters); Eurofins Panlabs (kinases)
Protocol: as §3

B2 (h) = target: T15, B2 (h) (Homo sapiens, UniProt P30411); assay: Cerep panel; format: binding
T15 construct: purchased Cerep (receptors, ion channels, transporters); Eurofins Panlabs (kinases)
Protocol: as §3

5HT1A = 5HT1A (Homo sapiens, UniProt P08908); assay: GPCR panel, cAMP or calcium FLIPR assays; format: cell-based
Protocol: as §4

PKA(h) = target: T16, PKA(h) (Homo sapiens, UniProt P17612); assay: Kinase panel; format: biochemical
T16 construct: purchased Cerep (receptors, ion channels, transporters); Eurofins Panlabs (kinases)
Protocol: as §1

ZAP-70(h) = target: T17, ZAP-70(h) (Homo sapiens, UniProt P43403); assay: Kinase panel; format: biochemical
T17 construct: purchased Cerep (receptors, ion channels, transporters); Eurofins Panlabs (kinases)
Protocol: as §1

[1] = system: IMQ-induced skin inflammation in mice; assay: imiquimod-induced dermal inflammation model; format: in vivo, mouse
5HT2A = 5HT2A (Homo sapiens, UniProt P28223); assay: GPCR panel, cAMP or calcium FLIPR assays; format: cell-based
Protocol: as §4

ERα = target: T18, ERα (Homo sapiens, UniProt P03372); assay: nuclear receptor cellular GAL4 reporter assay; format: cell-based; conditions: agonist and antagonist mode; read-out: potency in agonist and antagonist mode
T18 construct: expressed in transfected cells

A2A = A2A (Homo sapiens, UniProt P29274); assay: GPCR panel, cAMP or calcium FLIPR assays; format: cell-based
Protocol: as §2

PKCα(h) = target: T19, PKCα(h) (Homo sapiens, UniProt P17252); assay: Kinase panel; format: biochemical
T19 construct: purchased Cerep (receptors, ion channels, transporters); Eurofins Panlabs (kinases)
Protocol: as §1

PPARβ = target: T20, PPARβ (Homo sapiens, UniProt Q03181); assay: nuclear receptor cellular GAL4 reporter assay; format: cell-based; conditions: agonist and antagonist mode; read-out: potency in agonist and antagonist mode
T20 construct: expressed in transfected cells

M3 = M3 (Homo sapiens, UniProt P20309); assay: GPCR panel, cAMP or calcium FLIPR assays; format: cell-based
Protocol: as §2

TK6 = assay: mammalian cell (TK6) micronucleus test; format: cell-based; conditions: in vitro

T3 sequence (P50406 whole entry): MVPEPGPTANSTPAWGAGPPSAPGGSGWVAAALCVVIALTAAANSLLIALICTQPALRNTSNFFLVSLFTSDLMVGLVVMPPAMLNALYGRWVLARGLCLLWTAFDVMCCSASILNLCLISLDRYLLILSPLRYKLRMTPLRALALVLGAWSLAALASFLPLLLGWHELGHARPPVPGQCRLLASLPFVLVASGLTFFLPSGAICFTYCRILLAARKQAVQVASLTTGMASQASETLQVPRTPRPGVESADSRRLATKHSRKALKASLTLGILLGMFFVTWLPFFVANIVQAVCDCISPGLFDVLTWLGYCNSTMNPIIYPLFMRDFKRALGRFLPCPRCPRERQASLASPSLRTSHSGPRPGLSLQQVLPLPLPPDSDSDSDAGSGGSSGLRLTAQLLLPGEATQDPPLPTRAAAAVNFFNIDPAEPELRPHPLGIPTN
Chain of D2L (P14416 whole entry): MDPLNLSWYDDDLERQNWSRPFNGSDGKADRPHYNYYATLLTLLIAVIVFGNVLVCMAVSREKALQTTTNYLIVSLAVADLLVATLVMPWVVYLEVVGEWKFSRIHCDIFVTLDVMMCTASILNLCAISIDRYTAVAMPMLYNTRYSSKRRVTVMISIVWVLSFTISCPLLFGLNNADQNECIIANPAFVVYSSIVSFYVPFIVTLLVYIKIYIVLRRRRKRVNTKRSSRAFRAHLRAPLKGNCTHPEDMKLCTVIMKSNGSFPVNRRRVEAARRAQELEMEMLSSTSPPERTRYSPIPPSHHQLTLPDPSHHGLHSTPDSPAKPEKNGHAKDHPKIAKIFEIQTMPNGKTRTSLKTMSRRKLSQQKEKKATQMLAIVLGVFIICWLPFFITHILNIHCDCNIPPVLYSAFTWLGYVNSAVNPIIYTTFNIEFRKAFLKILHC
T2 sequence (P19784 whole entry): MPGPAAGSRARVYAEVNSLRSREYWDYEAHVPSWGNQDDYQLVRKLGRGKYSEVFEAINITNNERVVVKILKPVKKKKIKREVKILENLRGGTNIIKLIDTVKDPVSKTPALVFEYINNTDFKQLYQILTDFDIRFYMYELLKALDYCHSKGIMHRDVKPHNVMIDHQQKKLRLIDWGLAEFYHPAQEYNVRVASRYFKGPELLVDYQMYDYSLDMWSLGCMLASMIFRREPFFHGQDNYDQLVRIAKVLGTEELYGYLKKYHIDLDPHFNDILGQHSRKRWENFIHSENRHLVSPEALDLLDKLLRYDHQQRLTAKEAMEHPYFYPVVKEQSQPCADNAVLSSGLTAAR
Chain of A2A (P29274 whole entry): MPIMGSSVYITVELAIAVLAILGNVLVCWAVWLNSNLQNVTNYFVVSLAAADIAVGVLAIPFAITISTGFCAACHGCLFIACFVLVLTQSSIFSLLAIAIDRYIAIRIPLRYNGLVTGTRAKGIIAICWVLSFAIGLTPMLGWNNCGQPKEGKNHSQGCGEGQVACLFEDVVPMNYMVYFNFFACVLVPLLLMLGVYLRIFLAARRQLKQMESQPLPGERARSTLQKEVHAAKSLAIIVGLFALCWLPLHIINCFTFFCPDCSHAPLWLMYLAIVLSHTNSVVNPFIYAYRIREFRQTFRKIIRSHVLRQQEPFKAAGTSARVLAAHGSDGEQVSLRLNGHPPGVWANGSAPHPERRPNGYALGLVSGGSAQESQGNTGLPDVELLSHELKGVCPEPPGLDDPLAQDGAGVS
Chain of 5HT1A (P08908 whole entry, species assumed): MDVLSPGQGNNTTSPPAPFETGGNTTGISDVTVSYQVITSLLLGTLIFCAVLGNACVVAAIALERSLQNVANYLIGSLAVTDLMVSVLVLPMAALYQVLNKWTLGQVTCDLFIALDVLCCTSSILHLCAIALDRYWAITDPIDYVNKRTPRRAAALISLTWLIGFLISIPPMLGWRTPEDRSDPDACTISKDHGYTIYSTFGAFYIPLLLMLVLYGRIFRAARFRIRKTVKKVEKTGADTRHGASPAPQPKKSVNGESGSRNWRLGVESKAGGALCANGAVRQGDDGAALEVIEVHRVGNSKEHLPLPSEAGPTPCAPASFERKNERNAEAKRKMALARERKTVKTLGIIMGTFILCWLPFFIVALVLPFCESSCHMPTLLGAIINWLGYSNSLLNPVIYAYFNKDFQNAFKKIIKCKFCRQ
T1 sequence (P51955 whole entry): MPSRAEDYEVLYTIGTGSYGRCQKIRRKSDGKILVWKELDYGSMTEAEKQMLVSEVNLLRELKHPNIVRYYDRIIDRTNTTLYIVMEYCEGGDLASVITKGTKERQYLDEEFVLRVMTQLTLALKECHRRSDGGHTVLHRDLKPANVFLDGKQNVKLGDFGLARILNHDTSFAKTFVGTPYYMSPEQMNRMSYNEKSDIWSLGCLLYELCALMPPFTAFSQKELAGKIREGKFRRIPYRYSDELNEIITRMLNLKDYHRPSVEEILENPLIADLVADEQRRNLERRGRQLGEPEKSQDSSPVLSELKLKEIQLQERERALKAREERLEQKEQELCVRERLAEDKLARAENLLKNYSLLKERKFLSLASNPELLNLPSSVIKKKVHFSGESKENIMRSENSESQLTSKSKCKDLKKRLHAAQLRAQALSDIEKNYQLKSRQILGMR
Chain of ADRA2A (P08913 whole entry, species assumed): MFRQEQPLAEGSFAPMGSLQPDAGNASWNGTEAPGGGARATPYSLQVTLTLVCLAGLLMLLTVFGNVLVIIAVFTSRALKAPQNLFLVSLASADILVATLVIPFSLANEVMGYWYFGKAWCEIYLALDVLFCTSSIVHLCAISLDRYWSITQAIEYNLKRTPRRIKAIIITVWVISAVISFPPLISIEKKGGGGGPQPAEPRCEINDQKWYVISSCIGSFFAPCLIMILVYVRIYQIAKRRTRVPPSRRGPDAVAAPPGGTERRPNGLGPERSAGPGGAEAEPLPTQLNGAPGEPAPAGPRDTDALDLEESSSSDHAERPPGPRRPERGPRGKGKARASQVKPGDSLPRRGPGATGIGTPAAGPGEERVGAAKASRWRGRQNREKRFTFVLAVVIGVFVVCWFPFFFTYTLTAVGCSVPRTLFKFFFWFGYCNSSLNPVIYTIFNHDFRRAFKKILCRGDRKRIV
Chain of 5HT2A (P28223 whole entry, species assumed, the tested form may be a part): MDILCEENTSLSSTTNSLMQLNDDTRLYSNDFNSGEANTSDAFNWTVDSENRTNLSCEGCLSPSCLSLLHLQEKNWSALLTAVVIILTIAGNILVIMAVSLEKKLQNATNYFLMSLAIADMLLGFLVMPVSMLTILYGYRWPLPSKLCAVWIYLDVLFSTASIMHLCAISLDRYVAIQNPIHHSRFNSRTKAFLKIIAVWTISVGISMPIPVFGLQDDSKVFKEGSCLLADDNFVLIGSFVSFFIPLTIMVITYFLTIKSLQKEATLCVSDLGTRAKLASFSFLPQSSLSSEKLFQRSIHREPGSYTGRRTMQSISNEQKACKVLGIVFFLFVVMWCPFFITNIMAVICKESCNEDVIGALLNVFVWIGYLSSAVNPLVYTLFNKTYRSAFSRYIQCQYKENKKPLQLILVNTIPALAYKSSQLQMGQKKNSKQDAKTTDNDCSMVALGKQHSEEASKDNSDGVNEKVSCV
T17 sequence (P43403 whole entry): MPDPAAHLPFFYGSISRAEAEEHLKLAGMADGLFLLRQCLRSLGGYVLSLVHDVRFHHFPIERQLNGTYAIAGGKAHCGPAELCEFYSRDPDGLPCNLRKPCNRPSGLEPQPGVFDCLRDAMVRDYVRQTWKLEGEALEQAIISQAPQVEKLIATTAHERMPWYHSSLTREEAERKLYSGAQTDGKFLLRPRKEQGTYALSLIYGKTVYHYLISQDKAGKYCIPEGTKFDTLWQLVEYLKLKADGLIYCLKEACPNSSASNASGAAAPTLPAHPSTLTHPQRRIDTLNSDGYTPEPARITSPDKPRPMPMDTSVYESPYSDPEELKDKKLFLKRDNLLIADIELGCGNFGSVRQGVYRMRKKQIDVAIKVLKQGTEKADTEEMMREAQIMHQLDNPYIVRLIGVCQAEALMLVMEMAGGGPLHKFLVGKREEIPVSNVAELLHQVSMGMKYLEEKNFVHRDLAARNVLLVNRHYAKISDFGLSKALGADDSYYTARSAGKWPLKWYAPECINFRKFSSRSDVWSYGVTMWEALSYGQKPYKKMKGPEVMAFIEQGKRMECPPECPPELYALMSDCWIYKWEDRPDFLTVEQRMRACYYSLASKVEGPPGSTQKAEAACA

CC1CCCN1C(=O)c1nc(C(=O)NCC(C)(C)O)sc1-c1ccc(C(O)(C(F)(F)F)C(F)(F)F)c(Cl)c1Cl (centres unmarked) [JNJ-61803534]
activity at 1 µM (NEK2(h)): 102%
activity at 10 µM (NEK2(h)): 108%
EC50 (KOP; agonist): > 12.5 µM
IC50 (KOP; antagonist): > 12.5 µM
activity at 1 µM (CK2α2(h)): 92%
activity at 10 µM (CK2α2(h)): 100%
EC50 (D2L; agonist): > 12.5 µM
IC50 (D2L; antagonist): > 12.5 µM
EC50 (5HT2B; agonist): > 10 µM
IC50 (5HT2B; antagonist): > 10 µM
inhibition at 1 µM (5-HT6 (h)): < 10%
inhibition at 10 µM (5-HT6 (h)): < 10%
EC50 (ADRB2; agonist): > 12.5 µM
IC50 (ADRB2; antagonist): > 12.5 µM
inhibition at 1 µM (5-HT3 (h)): < 10%
inhibition at 10 µM (5-HT3 (h)): < 10%
inhibition at 1 µM (MT1 (h)): < 10%
inhibition at 10 µM (MT1 (h)): 20.4%
IC50 (PPARγ): > 1500 nM
inhibition at 1 µM (DA-T transporter (h)): < 10%
inhibition at 10 µM (DA-T transporter (h)): < 10%
inhibition at 1 µM (M3 (h)): < 10%
inhibition at 10 µM (M3 (h)): < 10%
EC50 (ADRA2A; agonist): > 12.5 µM
IC50 (ADRA2A; antagonist): > 12.5 µM
inhibition at 1 µM (5-HT1B): < 10%
inhibition at 10 µM (5-HT1B): 15.6%
activity at 1 µM (PAK4(h)): 104%
activity at 10 µM (PAK4(h)): 103%
inhibition at 1 µM (kappa (KOP)): < 10%
inhibition at 10 µM (kappa (KOP)): < 10%
fraction unbound (plasma protein binding): 0.011
inhibition at 1 µM (CCR1 (h)): < 10%
inhibition at 10 µM (CCR1 (h)): < 10%
inhibition at 1 µM (5-HT5A (h)): < 10%
inhibition at 10 µM (5-HT5A (h)): < 10%
inhibition at 1 µM (ETA (h)): < 10%
inhibition at 10 µM (ETA (h)): < 10%
inhibition at 1 µM (B2 (h)): < 10%
inhibition at 10 µM (B2 (h)): < 10%
EC50 (5HT1A; agonist): > 12.5 µM
IC50 (5HT1A; antagonist): > 12.5 µM
activity at 1 µM (PKA(h)): 85%
activity at 10 µM (PKA(h)): 88%
activity at 1 µM (ZAP-70(h)): 137%
activity at 10 µM (ZAP-70(h)): 119%
IL-17A and IL-17F expression ([1]; 30 mg/kg, ears, RNA level): trend towards inhibition
IMQ-induced neutrophils and inflammatory monocytes infiltrations in the ear ([1]; 100 mg/kg): significantly reduced
IMQ-induced expression of IL-17A, IL-17F, and IL-22 genes ([1]; 100 mg/kg, ears, RNA level): significantly inhibited
disease scores (thickness, redness, scaling) of back skin ([1]; 30 and 100 mg/kg oral, dose-dependent): significantly reduced
IL-10 expression ([1]; 30 and 100 mg/kg, RNA level): not inhibited
IL-23R expression ([1]; 30 and 100 mg/kg, RNA level): trend towards inhibition
IFNγ expression ([1]; RNA level): minimally impacted
IL-17A- and IL-17A/IL-22-producing γδ T cell populations ([1]; ear skin and draining lymph nodes, dose-dependent): reduced
EC50 (5HT2A; agonist): > 10 µM
IC50 (5HT2A; antagonist): > 10 µM
IC50 (ERα): > 1500 nM
EC50 (A2A; agonist): > 12.5 µM
IC50 (A2A; antagonist): > 12.5 µM
activity at 1 µM (PKCα(h)): 102%
activity at 10 µM (PKCα(h)): 99%
IC50 (PPARβ): > 1500 nM
EC50 (M3; agonist): > 10 µM
IC50 (M3; antagonist): > 10 µM
genetic toxicity (TK6): negative
